# Test results taken from patent US9481654B2, “Compositions and methods for inhibition of the JAK pathway” (Rigel Pharmaceuticals, Inc., priority 2006, dated 2016).
# Experiments:
# Assay type in all cases: cell-based
# [1] = test system: IL-4 stimulated CD23 upregulation in human Ramos B cells (JAK-1/JAK-3, Stat-6); assay: Assay for Ramos B-Cell Line Stimulated with IL-4 (CD23 upregulation, FACS); details: Table III Example 3
# Procedure, shortened: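 Flow cytometry of CD23 staining after 20-24 h IL-4 stimulation (50 units/mL final) of human Ramos B cells in RPMI with 5% serum. Cells, 5×10^4 per point, received compound or DMSO vehicle for 1 h at 37° C prior to stimulation.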
# [2] = test system: IFNγ induced ICAM-1 (CD54) up-regulation in U937 human monocytic cells (JAK/Stat pathway); assay: U937 IFNγ ICAM1 FACS Assay; details: Table III Example 6; 10 ng/mL IFNγ, 18-24 hours
# From the text: A549 lung epithelial cells and U937 cells up-regulate ICAM-1 (CD54) surface expression in response to a variety of different stimuli. Therefore, using ICAM-1 expression as readout, test compound effects on different signaling pathways can be assessed in the same cell type. Stimulation with IL-1β through the IL-1β receptor activates the TRAF6/NFκB pathway resulting in up-regulation of ICAM-1. IFNγ induces ICAM-1 up-regulation through activation of the JAK1/JAK2 pathway. The up-regulation of ICAM-1 can be quantified by flow cytometry across a compound dose curve and EC50 values are calculated. Exemplary assays of this type are described in greater detail in Examples 5 and 6. U937 human monocytic cells up-regulate ICAM-1 (CD54) surface expression in response to a variety of different stimuli. Therefore, using ICAM-1 expression as readout, compound effects on different signaling pathways can be assessed in the same cell type. IFNγ up-regulates ICAM-1 through activation of the JAK/Stat pathway. In this example, the up-regulation of ICAM-1 by IFNγ was assessed. […] The cells were then plated at a concentration of 100,000 cells per 160 μL in 96 well flat bottom plates. The test compounds were then diluted as follows: 10 mM test compound was diluted 1:5 in DMSO (3 μL 10 mM test compound in 12 μL DMSO), followed by a 1:3 serial dilution of test compound in DMSO (6 μL test compound serially diluted into 12 μL DMSO to give 3-fold dilutions). […] For control wells, 4 μL of DMSO was diluted into 76 μL 10% RPMI. […] The cells and compounds were then pre-incubated for 30 minutes at 37° C. with 5% CO2. […] The cells were kept under conditions for stimulation for 18-24 hours at 37° C. with 5% CO2. […] Cells were spun down at 1000 rpm for 5 minutes at 4° C., following which the supernatant was removed. […] The cells were then incubated on ice in the dark for 30 minutes. […] After suspension, the cells were centrifuged at 1000 rpm for 5 min at 4° C. […] Detection was performed using a BD LSR I System Flow Cytometer, purchased from BD Biosciences of San Jose, Calif. The live cells were gated for live scatter and the geometric mean of ICAM-APC was measured (Becton-Dickinson CellQuest software version 3.3, Franklin Lakes, N.J.). Both % live cells and ICAM-1 expression was analyzed. The assays for the test compounds were carried out in parallel with a control compound of known activity.
# [3] = test system: primary human T-cells (IL-2 induced proliferation, JAK-1/JAK-3, Stat-5); assay: Primary Human T-Cell Proliferation Assay Stimulated with IL-2 (CellTiter-Glo); details: Table III Example 4
# Procedure, shortened: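 Read-out is intracellular ATP luminescence (CellTiter-Glo) after 72 h at 37 °C of IL-2-driven growth. Cells, pre-stimulated via TCR and CD28 then washed free of IL-2, were resuspended in Yssel's medium, given 80 U/mL IL-2 in the cell suspension plus duplicate compound; unstimulated wells lacked IL-2.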
Compound,IC50 [1] [nM],IC50 [2] [nM],IC50 [3] [nM]
"CNS(=O)(=O)c1ccc(Nc2ncc(C)c(Nc3ccc(CNS(=O)(=O)C4CC4)cc3)n2)cc1 [Compound I-163, N4-(4-cyclopropylsulfonylaminomethyl)phenyl-5-methyl-N2-(4-methylaminosulfonyl)phenyl-2,4-pyrimidinediamine]",46.7,143,52.7
"Cc1cnc(Nc2ccc(S(=O)(=O)NC3CCCC3)cc2)nc1Nc1ccc(CNS(=O)(=O)C2CC2)cc1 [Compound I-166, N2-(4-cyclopentylaminosulfonyl)phenyl-N4-(4-cyclopropylsulfonylaminomethyl)phenyl-5-methyl-2,4-pyrimidinediamine]",82.5,280,212
"CCC(=O)N(Cc1ccc(Nc2nc(Nc3ccc(S(N)(=O)=O)cc3)ncc2C)cc1)S(=O)(=O)C1CC1 [Compound I-167, N2-(4-aminosulfonyl)phenyl-N4-[4-(N-cyclopropylsulfonyl-N-propionyl)aminomethyl]phenyl-5-methyl-2,4-pyrimidinediamine]",132,587,116
"Cc1cnc(Nc2cccc(S(=O)(=O)NCc3ccncc3)c2)nc1Nc1ccc(CNS(=O)(=O)C2CC2)cc1 [Compound I-169, N4-(4-cyclopropylsulfonylaminomethyl)phenyl-5-methyl-N2-[3-(4-pyridylmethyl)aminosulfonyl]phenyl-2,4-pyrimidinediamine]",140,478,206
"Cc1cnc(Nc2cccc(S(=O)(=O)NC3CCCC3)c2)nc1Nc1ccc(CNS(=O)(=O)C2CC2)cc1 [Compound I-170, N2-(3-cyclopentylaminosulfonyl)phenyl-N4-(4-cyclopropylsulfonylaminomethyl)phenyl-5-methyl-2,4-pyrimidinediamine]",136,238,172
"Cc1cnc(Nc2ccc(S(=O)(=O)NC(C)C)cc2)nc1Nc1ccc(CNS(=O)(=O)C2CC2)cc1 [Compound I-172, N4-(4-cyclopropylsulfonylaminomethyl)phenyl-N2-(4-isopropylaminosulfonyl)phenyl-5-methyl-2,4-pyrimidinediamine]",52.1,123,81
"CCCNS(=O)(=O)c1ccc(Nc2ncc(C)c(Nc3ccc(CNS(=O)(=O)C4CC4)cc3)n2)cc1 [Compound I-177, N4-(4-cyclopropylsulfonylaminomethyl)phenyl-5-methyl-N2-(4-propylaminosulfonyl)phenyl-2,4-pyrimidinediamine]",17.7,107,160
"Cc1cnc(Nc2ccc(S(=O)(=O)NCC3CC3)cc2)nc1Nc1ccc(CNS(=O)(=O)C2CC2)cc1 [Compound I-179, N2-(4-cyclopropylmethylaminosulfonyl)phenyl-N4-(4-cyclopropylsulfonylaminomethyl)phenyl-5-methyl-2,4-pyrimidinediamine]",45.9,365,290
"COCCNS(=O)(=O)c1ccc(Nc2ncc(C)c(Nc3ccc(CNS(=O)(=O)C4CC4)cc3)n2)cc1 [Compound I-183, N4-(4-cyclopropylsulfonylaminomethyl)phenyl-N2-[4-(2-methoxyethyl)aminosulfonyl]phenyl-5-methyl-2,4-pyrimidinediamine]",66.7,207,155
"Cc1ccc(Nc2ncc(C)c(Nc3cccc(CNS(=O)(=O)C4CC4)c3)n2)cc1S(=O)(=O)NC(C)C [Compound I-209, N4-(3-cyclopropylsulfonylaminomethyl)phenyl-N2-(3-isopropylaminosulfonyl-4-methyl)phenyl-5-methyl-2,4-pyrimidinediamine]",113,529,131
"CNS(=O)(=O)c1cc(Nc2ncc(C)c(Nc3cccc(CNS(=O)(=O)C4CC4)c3)n2)ccc1C [Compound I-211, N4-(3-cyclopropylsulfonylaminomethyl)phenyl-5-methyl-N2-(4-methyl-3-methylaminosulfonyl)phenyl-2,4-pyrimidinediamine]",103,177,48.2
"CCNS(=O)(=O)c1ccc(Nc2ncc(C)c(Nc3cccc(CNS(=O)(=O)C4CC4)c3)n2)cc1 [Compound I-212, N4-(3-cyclopropylsulfonylaminomethyl)phenyl-N2-(4-ethylaminosulfonyl)phenyl-5-methyl-2,4-pyrimidinediamine]",236,215,160
"CCNS(=O)(=O)c1cc(Nc2ncc(C)c(Nc3cccc(CNS(=O)(=O)C4CC4)c3)n2)ccc1C [Compound I-213, N4-(3-cyclopropylsulfonylaminomethyl)phenyl-N2-(3-ethylaminosulfonyl-4-methyl)phenyl-5-methyl-2,4-pyrimidinediamine]",88.2,125,91.8
"C#CCNS(=O)(=O)c1cc(Nc2ncc(C)c(Nc3cccc(CNS(=O)(=O)C4CC4)c3)n2)ccc1C [Compound I-214, N4-(3-cyclopropylsulfonylaminomethyl)phenyl-5-methyl-N2-(4-methyl-3-propargylaminosulfonyl)phenyl-2,4-pyrimidinediamine]",162,190,136
"CCCNS(=O)(=O)c1cc(Nc2ncc(C)c(Nc3cccc(CNS(=O)(=O)C4CC4)c3)n2)ccc1C [Compound I-215, N4-(3-cyclopropylsulfonylaminomethyl)phenyl-5-methyl-N2-(4-methyl-3-propylaminosulfonyl)phenyl-2,4-pyrimidinediamine]",132,385,116
"Cc1ccc(Nc2ncc(C)c(Nc3cccc(CNS(=O)(=O)C4CC4)c3)n2)cc1S(=O)(=O)NCC1CC1 [Compound I-216, N2-(3-cyclopropylmethylaminosulfonyl-4-methyl)phenyl-N4-(3-cyclopropylsulfonylaminomethyl)phenyl-5-methyl-2,4-pyrimidinediamine]",161,590,154
"COCCCNS(=O)(=O)c1cc(Nc2ncc(C)c(Nc3cccc(CNS(=O)(=O)C4CC4)c3)n2)ccc1C [Compound I-217, N4-(3-cyclopropylsulfonylaminomethyl)phenyl-N2-[3-(3-methoxypropyl)aminosulfonyl-4-methyl]phenyl-5-methyl-2,4-pyrimidinediamine]",80.2,496,129
"Cc1cnc(Nc2cccc(S(N)(=O)=O)c2)nc1Nc1ccc2c(c1)CCN(S(=O)(=O)C1CC1)C2 [II-2, N2-(3-aminosulfonyl)phenyl-N4-[(N-cyclopropylsulfonyl)-1,2,3,4-tetrahydroisoquinolin-6-yl]-5-methyl-2,4-pyrimidinediamine]",7.75,107,30.4
"Cc1ccc(Nc2ncc(C)c(Nc3ccc4c(c3)CN(S(=O)(=O)C3CC3)C4)n2)cc1S(N)(=O)=O [II-7, N2-(3-Aminosulfonyl-4-methylphenyl)-N4-[(2-cyclopropylsulfonyl)-isoindolin-5-yl]-5-methyl-2,4-pyrimidinediamine]",130,652,155
"Cc1cnc(Nc2ccc(S(N)(=O)=O)cc2)nc1Nc1ccc2c(c1)CN(S(=O)(=O)C1CC1)C2 [II-9, N2-(4-Aminosulfonyl-phenyl)-N4-[(2-cyclopropylsulfonyl)-isoindolin-5-yl]-5-methyl-2,4-pyrimidinediamine]",118,1110,277
